According to patent US20250090689A1, “[…] FOR TREATING EPILEPSY AND NEUROPATHIC PAIN” (Trames Bio, Inc., priority 2022, published 2025):

Target: T1, CODA71 receptor (Homo sapiens, UniProt P36544, F159M/H163T/I152M/R155K/V154L/W156N/Y151P)
T1 construct: expressed in transfected cells; host or cells: mouse brain neurons transduced in vivo with AAV carrying expression cassettes #11, #13, #33, #34, #35, #36 (KA focal epilepsy model)
Test: kainic acid (KA) focal epilepsy mouse model, seizure frequency after repeated dosing of TC-5619
Assay type: in vivo
Source text: Six expression cassettes—#11, #13, #33, #34, #35, and #36 in Table 2—were each packaged into the AAV vector and tested in a kainic acid (KA) focal epilepsy mouse model. The animals were then monitored for seizure frequency following repeated dosing of TC-5619, an activator of the CODA71 receptor transgene encoded by these expression cassettes.

T1 sequence (P36544 with tags, fused parts or gaps Y151P/I152M/V154L/R155K/W156N/F159M/H163T): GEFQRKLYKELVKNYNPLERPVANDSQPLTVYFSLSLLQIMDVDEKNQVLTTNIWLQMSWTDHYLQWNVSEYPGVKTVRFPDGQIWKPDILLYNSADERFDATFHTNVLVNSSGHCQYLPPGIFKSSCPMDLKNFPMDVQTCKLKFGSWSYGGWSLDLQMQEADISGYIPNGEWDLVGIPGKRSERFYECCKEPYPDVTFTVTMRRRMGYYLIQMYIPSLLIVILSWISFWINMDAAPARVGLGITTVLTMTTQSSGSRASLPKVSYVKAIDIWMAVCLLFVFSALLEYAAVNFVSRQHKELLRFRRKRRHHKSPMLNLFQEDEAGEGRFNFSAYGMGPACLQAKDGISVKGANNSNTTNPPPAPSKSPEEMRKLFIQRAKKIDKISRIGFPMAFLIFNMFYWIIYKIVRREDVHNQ

For `O=C(N[C@@H]1C2CCN(CC2)[C@H]1Cc1cccnc1)c1cc2ccccc2o1` [TC-5619], the seizure burden (higher dose ranges of TC-5619, KA mice with AAV-delivered CODA71 cassettes) was “significantly reduced seizure burden”, the seizure frequency (repeated dosing of TC-5619 in KA mice injected with AAV carrying cassettes #11, #13, #33, #34, #35 or #36, FIG. 7) was “dose-dependent reduction of seizure frequency” and the “residual effect after washout (return to baseline)” value (repeated single doses of TC-5619 followed by washout) was “no residual effect”.
